Data from PubChem BioAssay AID435031 (Sanford-Burnham Center for Chemical Genomics, 2010).
The source made the active and inactive calls. No rule for the calls is given here.

What follows are compounds tested on cytotoxicity counter-screen, luminescence read-out (assay: cell viability loss, luminescent readout – luminescence, cytotoxicity control for HIV fusion inhibitor project, SAR follow-up (AID 435031)).
With `CS(=O)(=O)C1=NSC2=NC(=O)/C(=C\c3cccn3-c3ccc(Cl)cc3)C(=N)N21` the CC50 was > 100 µM (inactive). With `CC1(C)CC(=O)C2=C(C1)c1c(ccc3ccccc13)NC2c1cc([N+](=O)[O-])cc([N+](=O)[O-])c1O` (stereo unspecified) the CC50 was > 100 µM (inactive). In the case of `O=c1c(=Cc2cc([N+](=O)[O-])cc([N+](=O)[O-])c2O)sc2nc3ccccc3n12`, the CC50 is reported as > 100 µM (inactive). For `O=[N+]([O-])c1cc([N+](=O)[O-])c2oc(-c3ccccc3)c(Br)c2c1O`, the CC50 was > 100 µM (inactive). In the case of `O=C(O)c1ccccc1N=Nc1c(O)[nH]c2ccc([N+](=O)[O-])cc12`, the CC50 is reported as > 100 µM (inactive). `CC(C)(C)c1cc(-c2csc(Nc3ccccc3)[n+]2Cc2ccc(C(=O)O)cc2)cc(C(C)(C)C)c1O` was tested, and the CC50 was 13.7 µM. With `COC(=O)c1sc(-c2ccc(C(C)(C)C)cc2)cc1NC(=O)c1ccccc1C(=O)O` the CC50 was 17 µM. In the case of `COc1cc(/C=N/NS(=O)(=O)c2ccc3ccccc3c2)ccc1OCc1ccc(C(=O)O)cc1`, the CC50 is reported as > 100 µM (inactive). `O=C(N/N=C/c1c(O)n(C2CCCCC2)c(=S)[nH]c1=O)c1ccccc1O` was tested, and the CC50 was > 100 µM (inactive). `O=C1NC(=S)N(c2ccc(F)cc2)C(=O)/C1=C/c1ccco1` was tested, and the CC50 was > 100 µM (inactive). With `COc1ccc(C(=O)Oc2ccc(C=NNc3ccc(Cl)c(C(=O)O)c3)cc2OC)cc1` the CC50 was > 100 µM (inactive). `O=C(O)CCCN1C(=O)/C(=C/c2ccc(-c3nc4ccccc4s3)o2)SC1=S` was tested, and the CC50 was > 100 µM (inactive). `Cc1c(Cl)cccc1NS(=O)(=O)c1ccc2c(c1)C1C=CCC1C(c1ccc(C(=O)O)cc1)N2` (stereo unspecified) was tested, and the CC50 was > 100 µM (inactive). `CCC(C)(C)C1CCc2c(sc(NC(=O)c3ccccc3C(=O)O)c2C#N)C1` (stereo unspecified) was tested, and the CC50 was 22 µM. `O=C1NC(=S)N(c2ccc(F)cc2)C(=O)/C1=C\c1ccoc1` was tested, and the CC50 was > 100 µM (inactive). In the case of `Cc1ccc(S(=O)(=O)Oc2ccc(/C=C3/C(=N)N4C(=NC3=O)SN=C4S(C)(=O)=O)cc2)cc1`, the CC50 is reported as 91 µM. In the case of `N#C/C(=C\c1ccc(OCc2ccc(Cl)cc2)cc1)C(=O)Nc1cccc(C(=O)O)c1`, the CC50 is reported as > 100 µM (inactive). With `CCC(Sc1nc2ccsc2c(=O)n1Cc1ccc(C(=O)O)cc1)C(=O)Nc1ccc(C)c(Cl)c1` (stereo unspecified) the CC50 was > 100 µM (inactive). With `COc1cc(/C=C2\SC(=O)N(c3ccccc3Cl)C2=O)cc([N+](=O)[O-])c1O` the CC50 was > 100 µM (inactive). In the case of `CC(C)S(=O)(=O)C1=NSC2=NC(=O)/C(=C\c3ccc(-c4cccc(C(=O)O)c4)o3)C(=N)N21`, the CC50 is reported as > 100 µM (inactive). In the case of `COc1cc(C=NNc2ccc(Cl)c(C(=O)O)c2)ccc1OC(=O)c1ccc(F)cc1`, the CC50 is reported as > 100 µM (inactive). `O=C(O)c1ccccc1C(=O)N(Cc1cccc(Oc2ccc(Cl)cc2)c1)[C@H]1CCCc2ccccc21` gave a CC50 of 19 µM. For `CS(=O)(=O)C1=NSC2=NC(=O)/C(=C\c3ccc(OS(=O)(=O)c4ccccc4)cc3)C(=N)N21`, the CC50 was > 100 µM (inactive). `COc1ccccc1NS(=O)(=O)c1cccc(-n2c(O)c(C=Nc3ccccc3C(=O)O)c3ccccc3c2=O)c1` was tested, and the CC50 was > 100 µM (inactive). `CSc1nnc(-c2ccccc2N=Cc2c(C)[nH]n(-c3ccc4ccccc4c3)c2=O)c(=O)[nH]1` was tested, and the CC50 was > 100 µM (inactive). `CCOC(=O)C1=C(C)N=c2sc(=Cc3ccc(OCC(=O)O)cc3)c(=O)n2C1c1ccc(OC(C)C)cc1` (stereo unspecified) gave a CC50 of 32 µM. `COc1cc(C=NNc2ccc(Cl)c(C(=O)O)c2)ccc1OC(=O)c1ccccc1F` was tested, and the CC50 was > 100 µM (inactive). For `CC(C)S(=O)(=O)C1=NSC2=NC(=O)/C(=C\c3ccc(-c4ccccc4)o3)C(=N)N21`, the CC50 was > 100 µM (inactive). With `CCOC(=O)c1sc(N2C(=O)C(O)=C(C(=O)c3ccc(C)o3)C2c2cccc([N+](=O)[O-])c2)nc1C` (stereo unspecified) the CC50 was > 100 µM (inactive). With `COc1ccc(OC)c(N2C(=O)/C(=C/c3ccco3)C(=O)NC2=S)c1` the CC50 was > 100 µM (inactive). In the case of `Oc1c(Cl)cc(Cl)c(Cl)c1Cc1c(O)c(Cl)cc(Cl)c1Cl`, the CC50 is reported as 18 µM.
